Assay results: patent publication US11046672B2, “Indolinones compounds and their use in the treatment of fibrotic diseases” (RESPIVERT LIMITED, priority 2015, dated 2021)
Like-named read-outs stand apart in the source and are kept apart here.

Assays:
[1] = Pharmacokinetic measurements in mice (intravenous and intra-nasal dosing); type: in vivo; conditions: mouse; for concentration at 6 h / concentration at 0.1 h / concentration at 1.5 h / concentration at 24 h: lung, read-out: lung concentration (nM) at time (h); for Kp at 6 h / Kp at 0.1 h / Kp at 1.5 h: lung/plasma
PDGFRβ [2] = target: T1, PDGFRβ (Homo sapiens (Human), UniProt P09619); conditions: read-out: Ki PDGFRβ; mean, n = 2 unless otherwise indicated
T1 sequence (P09619 33-1106): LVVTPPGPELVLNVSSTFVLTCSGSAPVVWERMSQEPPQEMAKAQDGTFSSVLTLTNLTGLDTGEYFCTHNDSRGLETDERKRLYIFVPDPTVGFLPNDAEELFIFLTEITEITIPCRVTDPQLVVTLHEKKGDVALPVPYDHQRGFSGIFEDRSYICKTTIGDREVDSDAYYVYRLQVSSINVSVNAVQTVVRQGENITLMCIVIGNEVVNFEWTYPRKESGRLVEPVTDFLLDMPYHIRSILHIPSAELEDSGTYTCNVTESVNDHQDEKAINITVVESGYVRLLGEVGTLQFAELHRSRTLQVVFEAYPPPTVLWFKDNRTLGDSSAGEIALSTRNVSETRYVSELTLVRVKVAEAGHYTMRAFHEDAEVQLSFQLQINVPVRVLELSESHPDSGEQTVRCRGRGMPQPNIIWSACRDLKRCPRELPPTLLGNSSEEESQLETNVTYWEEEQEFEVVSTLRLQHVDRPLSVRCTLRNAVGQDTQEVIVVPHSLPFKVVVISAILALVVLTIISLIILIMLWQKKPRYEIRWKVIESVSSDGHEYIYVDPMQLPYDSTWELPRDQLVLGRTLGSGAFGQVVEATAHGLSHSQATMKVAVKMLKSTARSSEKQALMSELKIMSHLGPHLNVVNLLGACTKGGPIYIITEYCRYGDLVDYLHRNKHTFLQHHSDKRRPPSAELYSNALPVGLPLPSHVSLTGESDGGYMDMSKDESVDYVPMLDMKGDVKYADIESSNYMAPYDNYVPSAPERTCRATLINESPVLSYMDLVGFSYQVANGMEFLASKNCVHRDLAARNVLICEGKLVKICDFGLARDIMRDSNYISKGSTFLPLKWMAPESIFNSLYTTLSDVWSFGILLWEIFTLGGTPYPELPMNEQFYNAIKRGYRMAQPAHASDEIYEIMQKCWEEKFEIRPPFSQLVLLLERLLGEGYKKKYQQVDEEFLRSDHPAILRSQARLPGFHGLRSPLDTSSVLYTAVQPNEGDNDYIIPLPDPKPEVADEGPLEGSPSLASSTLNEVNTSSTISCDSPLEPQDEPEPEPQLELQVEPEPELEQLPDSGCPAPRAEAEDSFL

MRC5 cells = assay: Cell viability assay in MRC5 cells (MTT)
[3] = Pharmacokinetic measurements in rats (intravenous and intra-tracheal dosing); type: in vivo; conditions: rat; for concentration at 6 h / concentration at 0.1 h / concentration at 1.5 h / concentration at 24 h: lung, read-out: lung concentration (nM) at time (h); for Kp at 6 h / Kp at 0.1 h / Kp at 1.5 h / Kp at 24 h: lung/plasma
PDGFRβ [4] = target: T1, PDGFRβ; assay: PDGF-BB induced phosphorylation of PDGFRβ in fibroblasts (MRC5 cells, HTRF); type: cell-based; conditions: MRC5 cells; n = 1 unless otherwise indicated; read-out: PDGFBB-induced PDGFRβ phosphorylation in MRC5 cells (IC50)
PDGFRβ [5] = target: T1, PDGFRβ; assay: Duration of action (washout) against PDGF-BB induced phosphorylation of PDGFRβ in human fetal lung fibroblast cells; type: cell-based; conditions: MRC-5 cells, after wash-out, rhuPDGF-BB; experiments in Groups 1-4
PAMPA permeability assay = type: in vitro ADME; conditions: PAMPA, donor and acceptor compartments

COC(=O)c1cc2c(cc1C)/C(=C(/Nc1ccc(C(=O)NOCCN(C)C)c(C)c1)c1ccccc1)C(=O)N2 [Example 5, (Z)-Methyl 3-(((4-((2-(dimethylamino)ethoxy)carbamoyl)-3-methylphenyl)amino)(phenyl)methylene)-5-methyl-2-oxoindoline-6-carboxylate]
concentration at 6 h ([1]; male, C57BL/6J, iv, 0.2 mg/kg, i.v. dosing, 6 h, mean): 306 nM
concentration at 0.1 h ([1]; male, C57BL/6J, iv, i.v. dosing, 0.1 h, mean): 868 nM
concentration at 1.5 h ([1]; male, C57BL/6J, iv, i.v. dosing, 1.5 h, mean): 416 nM
concentration at 24 h ([1]; male, C57BL/6J, iv, i.v. dosing, 24 h, mean): 20 nM
concentration at 0.1 h ([1]; male, C57BL/6J, other: intra-nasal, i.n. dosing, 0.1 h, mean): 3510 nM
concentration at 1.5 h ([1]; male, C57BL/6J, other: intra-nasal, i.n. dosing, 1.5 h, mean): 1730 nM
concentration at 6 h ([1]; male, C57BL/6J, other: intra-nasal, i.n. dosing, 6 h, mean): 1320 nM
concentration at 24 h ([1]; male, C57BL/6J, other: intra-nasal, i.n. dosing, 24 h, mean): 363 nM
Kp at 6 h ([1]; male, C57BL/6J, iv, 0.2 mg/kg, i.v. dosing, 6 h, read-out: lung/plasma ratio at time(h)): 152
Kp at 0.1 h ([1]; male, C57BL/6J, iv, i.v. dosing, 0.1 h, read-out: lung/plasma ratio at time(h)): 13
Kp at 1.5 h ([1]; male, C57BL/6J, iv, i.v. dosing, 1.5 h, read-out: lung/plasma ratio at time(h)): 39
Kp at 0.1 h ([1]; male, C57BL/6J, other: intra-nasal, i.n. dosing, 0.1 h, read-out: lung/plasma conc ratio at time(h)): 209
Kp at 1.5 h ([1]; male, C57BL/6J, other: intra-nasal, i.n. dosing, 1.5 h, read-out: lung/plasma conc ratio at time(h)): 688
Kp at 6 h ([1]; male, C57BL/6J, other: intra-nasal, i.n. dosing, 6 h, read-out: lung/plasma conc ratio at time(h)): 1130
clearance ([1]; male, C57BL/6J, whole blood, iv): 111 mL/min/kg
MRT ([1]; male, C57BL/6J, whole blood, iv, i.v. dosing, mean): 3.2 h
Vd ([1]; male, C57BL/6J, whole blood, iv, i.v. dosing, mean, read-out: Vss): 21 L/kg
half-life ([1]; male, C57BL/6J, whole blood, iv, i.v. dosing, mean, read-out: t½ (converted)): 2.6 h
Lung conc i.n./i.v. Ratio at time (h) ([1]; 0.1 h): 4.0
Lung conc i.n./i.v. Ratio at time (h) ([1]; 1.5 h): 4.2
Lung conc i.n./i.v. Ratio at time (h) ([1]; 6 h): 4.3
Lung conc i.n./i.v. Ratio at time (h) ([1]; 24 h): 18.2
BAV (%) ([1]; i.n. dosing (i.n. dose 1 nintedanib, 0.2 examples), mean): 14%
BAL % administered dose at time (h) ([1]; i.n. dosing, 0.1 h): 1%
BAL % administered dose at time (h) ([1]; i.n. dosing, 1.5 h): 0.1%
BAL % administered dose at time (h) ([1]; i.n. dosing, 6 h): 0.3%
BAL % administered dose at time (h) ([1]; i.n. dosing, 24 h): 0.1%
BAL % administered dose at time (h) ([1]; i.v. dosing, 0.1 h): 0.07%
BAL % administered dose at time (h) ([1]; i.v. dosing, 1.5 h): 0.02%
BAL % administered dose at time (h) ([1]; i.v. dosing, 6 h): 0.01%
BAL % administered dose at time (h) ([1]; i.v. dosing, 24 h): 0.02%
BAV (%) ([1]; oral dosing (oral dose 60 mg/kg nintedanib, 10 mg/kg examples), mean): 13%
Ki (PDGFRβ [2]): 7.13 nM
Cell viability at 100 nM (%) (MRC5 cells; 100 nM): 100.6%
Cell viability at 300 nM (%) (MRC5 cells; 300 nM): 92.5%
Cell viability at 1000 nM (%) (MRC5 cells; 1000 nM): 71.5%
concentration at 6 h ([3]; male, CD, iv, 0.1 mg/kg, i.v. dosing, 6 h): 92 nM
concentration at 0.1 h ([3]; male, CD, iv, i.v. dosing, 0.1 h): 475 nM
concentration at 1.5 h ([3]; male, CD, iv, i.v. dosing, 1.5 h): 251 nM
concentration at 24 h ([3]; male, CD, iv, i.v. dosing, 24 h): 52 nM
concentration at 0.1 h ([3]; male, CD, other: intra-tracheal, i.t. dosing, 0.1 h): 3590 nM
concentration at 1.5 h ([3]; male, CD, other: intra-tracheal, i.t. dosing, 1.5 h): 1710 nM
concentration at 6 h ([3]; male, CD, other: intra-tracheal, i.t. dosing, 6 h): 629 nM
concentration at 24 h ([3]; male, CD, other: intra-tracheal, i.t. dosing, 24 h): 747 nM
Kp at 6 h ([3]; male, CD, iv, 0.1 mg/kg, i.v. dosing, 6 h, read-out: lung/plasma ratio at time(h)): 26
Kp at 0.1 h ([3]; male, CD, iv, i.v. dosing, 0.1 h, read-out: lung/plasma ratio at time(h)): 24
Kp at 1.5 h ([3]; male, CD, iv, i.v. dosing, 1.5 h, read-out: lung/plasma ratio at time(h)): 36
Kp at 24 h ([3]; male, CD, iv, i.v. dosing, 24 h, read-out: lung/plasma ratio at time(h)): 98
Kp at 0.1 h ([3]; male, CD, other: intra-tracheal, i.t. dosing, 0.1 h, read-out: lung/plasma conc ratio at time(h)): 74
Kp at 1.5 h ([3]; male, CD, other: intra-tracheal, i.t. dosing, 1.5 h, read-out: lung/plasma conc ratio at time(h)): 362
Kp at 6 h ([3]; male, CD, other: intra-tracheal, i.t. dosing, 6 h, read-out: lung/plasma conc ratio at time(h)): 461
Kp at 24 h ([3]; male, CD, other: intra-tracheal, i.t. dosing, 24 h, read-out: lung/plasma conc ratio at time(h)): 1520
MRT ([3]; male, CD, plasma, iv, i.v. dosing): 8 h
clearance ([3]; male, CD, plasma, iv, i.v. dosing (i.v. dose 0.1-0.5 per compound)): 48 mL/min/kg
Vd ([3]; male, CD, plasma, iv, i.v. dosing, read-out: Vss): 23 L/kg
half-life ([3]; male, CD, plasma, iv, i.v. dosing, read-out: t½ (converted)): 7.6 h
Lung conc i.t./i.v. Ratio at time (h) ([3]; 0.1 h): 7.6
Lung conc i.t./i.v. Ratio at time (h) ([3]; 1.5 h): 6.8
Lung conc i.t./i.v. Ratio at time (h) ([3]; 6 h): 6.8
Lung conc i.t./i.v. Ratio at time (h) ([3]; 24 h): 14.4
i.t. BAV (%) ([3]; i.t. dosing (i.t. dose 0.1-0.5 per compound)): 70%
BAL % administered dose at time (h) ([3]; i.t. dosing, 0.1 h): 3.1%
BAL % administered dose at time (h) ([3]; i.t. dosing, 1.5 h): 0.6%
BAL % administered dose at time (h) ([3]; i.t. dosing, 6 h): 0.3%
BAL % administered dose at time (h) ([3]; i.t. dosing, 24 h): 0.2%
BAL % administered dose at time (h) ([3]; i.v. dosing, 0.1 h): 0.04%
BAL % administered dose at time (h) ([3]; i.v. dosing, 1.5 h): 0.01%
BAL % administered dose at time (h) ([3]; i.v. dosing, 6 h): 0.01%
BAL % administered dose at time (h) ([3]; i.v. dosing, 24 h): 0.01%
Oral BAV (%) ([3]; oral dose 3 mg/kg): 4%
IC50 (PDGFRβ [4]): 7.74 nM
% phos: percentage phosphorylation after wash-out relative to maximal phosphorylation (100%) (PDGFRβ [5]): 37.3%
% Recovery (PAMPA permeability assay): 60.9%
recovery at 5 hr, 10 μM (PAMPA permeability assay; pH 7, PAMPA): 50.4%
